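Test compounds were applied to cells in 96-well plates for 48 hours at 5 doses. Abbreviation: GI50, concentration required for 50% inhibition of growth.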 The source made the active and inactive calls. Rule as the data show it: active = GI50 up to about 1.1 µM and inactive = higher.
Legend:
Assay in all cases: DTP human tumour cell line panel, 48 h
SW-620 = test system: SW-620
Hs-578T = test system: Hs-578T
MDA-MB-231 = test system: MDA-MB-231
MDA-MB-435 = test system: MDA-MB-435
Malme-3M = test system: Malme-3M
BT-549 = test system: BT-549
SK-MEL-2 = test system: SK-MEL-2
MCF7 = test system: MCF7
LOX IMVI = test system: LOX IMVI
MDA-N = test system: MDA-N
DU-145 = test system: DU-145
PC-3 = test system: PC-3
OVCAR-5 = test system: OVCAR-5
SK-MEL-5 = test system: SK-MEL-5
SNB-75 = test system: SNB-75
HCT-116 = test system: HCT-116
MOLT-4 = test system: MOLT-4
HCC 2998 = test system: HCC 2998

SMILES | GI50 (SW-620) | GI50 (Hs-578T) | GI50 (MDA-MB-231) | GI50 (MDA-MB-435) | GI50 (Malme-3M) | GI50 (BT-549) | GI50 (SK-MEL-2) | GI50 (MCF7) | GI50 (LOX IMVI) | GI50 (MDA-N) | GI50 (DU-145) | GI50 (PC-3) | GI50 (OVCAR-5) | GI50 (SK-MEL-5) | GI50 (SNB-75) | GI50 (HCT-116) | GI50 (MOLT-4) | GI50 (HCC 2998)
N=C(N)NCC(N)C(=O)O (stereo unspecified) | > 100 µM (inactive) | > 100 µM (inactive) | > 100 µM (inactive) | > 100 µM (inactive) | > 100 µM (inactive) | > 100 µM (inactive) | > 100 µM (inactive) | > 100 µM (inactive) | > 100 µM (inactive) | > 100 µM (inactive) | > 100 µM (inactive) | > 100 µM (inactive) | > 100 µM (inactive) | > 100 µM (inactive) | > 100 µM (inactive) | > 100 µM (inactive) |  | 
COc1ccc(CC2COc3cc(O)cc(O)c3C2=O)cc1O (stereo unspecified) | 3.56 µM (inactive) | 2.4 µM (inactive) | 6.49 µM (inactive) | 1.32 µM (inactive) | 4.21 µM (inactive) | 82.2 µM (inactive) | 3.81 µM (inactive) | 6.21 µM (inactive) | 8.83 µM (inactive) | 1.47 µM (inactive) | 9.48 µM (inactive) | 7.08 µM (inactive) | 12.3 µM (inactive) | 5.13 µM (inactive) | 1.37 µM (inactive) |  | 4.3 µM (inactive) | 
COc1ccc2c(Cc3c4ccccc4cc4ccccc34)cncc2c1O | 0.857 µM (active) | 1.58 µM (inactive) | 2.51 µM (inactive) | 0.239 µM (active) | 5.86 µM (inactive) | 5.69 µM (inactive) | 2.87 µM (inactive) | 0.638 µM (active) | 0.394 µM (active) | 0.404 µM (active) | 2.77 µM (inactive) | 5.14 µM (inactive) | 13.5 µM (inactive) | 0.658 µM (active) | 3.9 µM (inactive) | 1.48 µM (inactive) | 2.68 µM (inactive) | 
CC1OC1C(=O)P(=O)(O)O (stereo unspecified) | > 100 µM (inactive) | > 100 µM (inactive) | > 100 µM (inactive) | > 100 µM (inactive) |  | > 100 µM (inactive) | > 100 µM (inactive) | > 100 µM (inactive) | > 100 µM (inactive) | > 100 µM (inactive) | > 100 µM (inactive) | > 100 µM (inactive) | > 100 µM (inactive) | > 100 µM (inactive) | 57.9 µM (inactive) | > 100 µM (inactive) | > 100 µM (inactive) | > 100 µM (inactive)
COC1OC2COC1(OC)C1OC(C)(C)OC21 (stereo unspecified) | > 100 µM (inactive) | > 100 µM (inactive) | > 100 µM (inactive) | > 100 µM (inactive) | > 100 µM (inactive) | > 100 µM (inactive) | > 100 µM (inactive) | > 100 µM (inactive) |  | > 100 µM (inactive) | > 100 µM (inactive) | > 100 µM (inactive) | > 100 µM (inactive) | > 100 µM (inactive) | > 100 µM (inactive) | > 100 µM (inactive) | > 100 µM (inactive) | > 100 µM (inactive)
Cc1ccc(C2(O)c3ccccc3C(=O)N(C)C2(O)c2ccc(C)cc2)cc1 (stereo unspecified) | 34.5 µM (inactive) | 22.6 µM (inactive) | 28.2 µM (inactive) | > 100 µM (inactive) | > 100 µM (inactive) | 91.8 µM (inactive) | > 100 µM (inactive) | 38.9 µM (inactive) | 25.5 µM (inactive) | > 100 µM (inactive) | > 100 µM (inactive) | > 100 µM (inactive) | > 100 µM (inactive) | 33.5 µM (inactive) |  | 49.2 µM (inactive) | 12.8 µM (inactive) | 79.3 µM (inactive)
Nn1c(S)nnc1COc1cccc(OCc2nnc(S)n2N)c1 | 40 µM (inactive) | > 100 µM (inactive) | > 100 µM (inactive) | > 100 µM (inactive) | > 100 µM (inactive) | > 100 µM (inactive) | > 100 µM (inactive) | 75 µM (inactive) | 32.4 µM (inactive) | > 100 µM (inactive) | > 100 µM (inactive) | > 100 µM (inactive) | > 100 µM (inactive) |  | > 100 µM (inactive) | > 100 µM (inactive) | 3.13 µM (inactive) | > 100 µM (inactive)
Oc1cccc(-c2nc3ccccc3s2)c1 | 57.9 µM (inactive) | 15.5 µM (inactive) | 22.1 µM (inactive) | 30.7 µM (inactive) | 2.99 µM (inactive) | 33 µM (inactive) | 28.4 µM (inactive) | 16.4 µM (inactive) | 26.5 µM (inactive) | 27.8 µM (inactive) | 38.7 µM (inactive) | 23.2 µM (inactive) | 14.8 µM (inactive) |  | 19 µM (inactive) | 33 µM (inactive) | 24.2 µM (inactive) | 
COc1cc2c(cc1OC)C(=O)N(NC1=NCCN1)C2=O | > 100 µM (inactive) | > 100 µM (inactive) | > 100 µM (inactive) | > 100 µM (inactive) | > 100 µM (inactive) | > 100 µM (inactive) | > 100 µM (inactive) | > 100 µM (inactive) | > 100 µM (inactive) | > 100 µM (inactive) | > 100 µM (inactive) | > 100 µM (inactive) | > 100 µM (inactive) | > 100 µM (inactive) |  | > 100 µM (inactive) | > 100 µM (inactive) | > 100 µM (inactive)
O=C1c2ccccc2C(=O)c2[nH]c(=O)c(/C=N/Nc3ccc([N+](=O)[O-])cc3)nc21 | 12.1 µM (inactive) | 3.22 µM (inactive) | 11.3 µM (inactive) | 1.8 µM (inactive) | 1.21 µM (inactive) | 5.08 µM (inactive) | 3.86 µM (inactive) | 9.38 µM (inactive) | 3.56 µM (inactive) | 1.75 µM (inactive) | 1.81 µM (inactive) | 17.1 µM (inactive) | 31.6 µM (inactive) | 1.62 µM (inactive) |  | 19.8 µM (inactive) | 22.9 µM (inactive) | 1.61 µM (inactive)
CCNC(=S)N/N=C/c1ccccn1 | 6 µM (inactive) | > 100 µM (inactive) | 7.05 µM (inactive) | 16.3 µM (inactive) | 5.78 µM (inactive) | 20.9 µM (inactive) | 42.2 µM (inactive) | 3.27 µM (inactive) | 7.18 µM (inactive) | 27.7 µM (inactive) | 7.13 µM (inactive) | 6.95 µM (inactive) | 15.4 µM (inactive) | 3.95 µM (inactive) | 62.2 µM (inactive) | 8.93 µM (inactive) | 1.58 µM (inactive) | 
COc1cccc(/C=C2/S/C(=N/Nc3nc(C)c(C(C)=O)s3)NC2=O)c1O | 29.2 µM (inactive) | 57.8 µM (inactive) | 18.9 µM (inactive) | 30.5 µM (inactive) | 33 µM (inactive) | 28.9 µM (inactive) | 21.2 µM (inactive) | 32.6 µM (inactive) | 31.7 µM (inactive) | 31.7 µM (inactive) | 34.4 µM (inactive) | 25.9 µM (inactive) | 26.4 µM (inactive) | 20.9 µM (inactive) | 37.9 µM (inactive) | 30.7 µM (inactive) |  | 35.6 µM (inactive)

— ChEMBL document CHEMBL1201862, “PubChem BioAssay data set” (2004)
